Where “and” joins values, the source holds several entries; their conditions need not be identical. Identical values can stand only once. Like-named read-outs stand apart in the source and are kept apart here.
Tests used:
[1] = tested on: rat brain voltage-dependent sodium channels (BTX-modified); assay type: biochemical
[2] = Fraction of uncharged molecules at pH 7.4; assay type: physicochemical
[3] = Fig. 5 A, one channel, +60 mV, low-Kd period

uncharged molecules [2] | Compound | Measured FO2 (fractional time in the high affinity conformation) ([1]; 0.4 mM QX-314, +60 mV, six channels, 3.66 h) | Measured FO2 (fractional time in the high affinity conformation) ([1]; 3.0 mM QX-314, +60 mV, two channels, 4.32 h) | block of the small subconductance channel state (~6 pS) ([1]; 30 mM lidocaine (0.2 M NaCl) or 0.4 mM QX-314 (0.5 M NaCl), Fig. 7) | koff (amplitude distribution, beta function fit) [1, 3] [s⁻¹] | kon (amplitude distribution, beta function fit) [1, 3] [M⁻¹ s⁻¹] | koff ([1]; Table I A, symmetrical 0.5 M NaCl, 160mV as printed, channels a, b, c) | kon rate relative to lidocaine ([1]; low-Kd period, Table I part B)
– | CC[N+](CC)(CC)CC(=O)Nc1c(C)cccc1C [QX-314, lidocaine N-ethyl] | 0.655 | 0.983 | did not block | 238 | 896000 | 238 s⁻¹ and 253 s⁻¹ and 291 s⁻¹ and 256 s⁻¹ | about six times lower
~ 14% | CCN(CC)CC(=O)Nc1c(C)cccc1C [lidocaine] | – | – | – | – | – | – | –

Reference: PMC2219390 (The Journal of General Physiology, 1996)
